Tests used:
ASK1 = molecular target: T1, ASK1 (Homo sapiens, UniProt Q99683); experiment: ASK1 Kinase Assay (Promega ASK1 Kinase Enzyme System, ADP-Glo); assay type: biochemical; conditions: enzyme 50 nM, Myelin basic protein 1 μg/ml, ATP 10 μM
T1 construct: purchased Promega V3881
Experimental: ASK1 Kinase Assay. The ASK1 enzymatic assay was run following Promega ASK1 Kinase Enzyme System (Cat #V3881). The kit provides the protocol, enzymes and all reagents necessary to run an assay.
Firstly, the compounds, enzyme, substrate and ATP were diluted in provided assay buffer. The final concentration of the enzyme was 50 nM, substrate (Myelin basic protein) 1μg/ml and ATP 10 μM. The compound and the enzyme were pre-incubated in a 384 well white solid bottom plate (Greiner, Cat #784075) for 10 minutes. After incubation, the substrate and ATP were added and incubated for further 60 minutes. After 60 minutes, ADP-gloTM was added and plate was incubated for another 40 minutes. After 40 minutes, Kinase Detection Reagent was added and the plate was incubated for 45 minutes. After 45 minutes, plate was read on Perkin Elmer EnVision using luminescence read (0.5 seconds/well).

[1] = molecular target: T2, recombinant human full-length DYRK1A protein (Homo sapiens, UniProt Q13627); experiment: DYRK1A Kinase Assay (microfluidics detection); assay type: biochemical; conditions: enzyme 0.01 nM, ATP 20 μM, DYRKtide peptide 1 μM, 3 h
T2 construct: recombinant human full-length DYRK1A protein; GST; host or cells: insect cells
Experimental: The DYRK1A kinase assay was performed using recombinant human full-length DYRK1A protein (GST-tagged, expressed in insect cells), in a 12-concentration IC50 format with singlicate wells (12 pt IC50), using microfluidics detection technology. Kinase reactions were assembled in 384 well plates (Greiner) in a total volume of 20 uL as follows: kinase protein was pre-diluted in assay buffer comprising: 100 mM HEPES, pH 7.5, 0.1% BSA, 0.01% Triton X-100, 1mM DTT, 5mM MgCl2 and dispensed into 384 well plate (10 μL per well). All compounds and reference standards were serially pre-diluted in DMSO and added to the protein samples by acoustic dispensing (Labcyte Echo). DMSO concentration was equalized to 1% in all samples. Control samples (0%-inhibition in the absence of inhibitor, DMSO only) and 100%-inhibition (in the absence of enzyme) are assembled in replicates of four and used to calculate the %-inhibition in the presence of compounds. Reactions were initiated by addition of […] of FAM-labeled DYRKtide peptide substrate and ATP prepared in the same assay buffer. Final concentrations of enzyme, ATP and substrate peptide were 0.01 nM, 20 μM and 1 μM, respectively. The kinase reactions are allowed to proceed for 3 h at room temperature. Following incubation, the reactions were quenched by addition of 50 μL of termination buffer (100 mM HEPES, pH7.5, 0.01% Triton X-100, 50 mM EDTA). Terminated plates are analyzed on a microfluidic electrophoresis instrument (Caliper LabChip® 3000, Caliper Life Sciences/Perkin Elmer), enabling electrophoretic separation and detection of product and substrate. A change in the relative intensity of the peptide substrate and phosphorylated product was the parameter measured. Activity in each test sample was determined as the product to sum ratio (PSR): P/(S+P), where P is the peak height of the product, and S is the peak height of the substrate. Percent inhibition (Pinh) was determined using the following equation: Pinh=(PSR0% inh—PSR compound)/(PSR0% inh—PSR100% inh)*100, in which: PSR compound is the product/sum ratio in the presence of compound, PSR0% inh is the product/sum ratio in the absence of compound and the PSR100% inh is the product/sum ratio in the absence of the enzyme. The compound IC50 (50%-inhibition) was determined by the %-inh data (Pinh versus compound concentration) fitted by a 4-parameter sigmoid dose-response model using XLfit software (IDBS).

T1 sequence (Q99683 649-946 limits assumed): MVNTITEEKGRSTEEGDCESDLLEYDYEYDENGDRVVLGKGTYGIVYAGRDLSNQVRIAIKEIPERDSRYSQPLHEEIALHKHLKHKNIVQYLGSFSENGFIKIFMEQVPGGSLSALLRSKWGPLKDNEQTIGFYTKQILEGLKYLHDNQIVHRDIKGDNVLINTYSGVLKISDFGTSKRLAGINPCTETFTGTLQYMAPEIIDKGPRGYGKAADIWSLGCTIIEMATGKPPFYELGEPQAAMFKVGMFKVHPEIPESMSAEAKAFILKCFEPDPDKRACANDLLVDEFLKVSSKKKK

## O=C1c2sccc2CN1c1cccc(-c2nncn2C2CC2)n1 [Compound 90, 5-(6-(4-Cyclopropyl-4H-1,2,4-triazol-3-yl)pyridin-2-yl)-4,5-dihydro-6H-thieno[2,3-c]pyrrol-6-one]
ASK1
  IC50: < 200 nM
[1]
  IC50: 200 to 1000 nM

## CC(=O)c1ccccc1-c1cc2c(s1)C(=O)N(c1cccc(-c3nncn3C3CC3)n1)C2 [Compound 91, 2-(2-Acetylphenyl)-5-(6-(4-cyclopropyl-4H-1,2,4-triazol-3-yl)pyridin-2-yl)-4,5-dihydro-6H-thieno[2,3-c]pyrrol-6-one]
ASK1
  IC50: 200 to 1000 nM
[1]
  IC50: 200 to 1000 nM

## O=C1c2sc(C3CCOCC3)cc2CN1c1cccc(-c2nncn2C2CC2)n1 [Compound 93, 5-(6-(4-cyclopropyl-4H-1,2,4-triazol-3-yl)pyridin-2-yl)-2-(tetrahydro-2H-pyran-4-yl)-4,5-dihydro-6H-thieno[2,3-c]pyrrol-6-one]
ASK1
  IC50: 200 to 1000 nM
[1]
  IC50: < 200 nM

## O=C1c2scc(-c3ccccc3)c2CN1c1cccc(-c2nncn2C2CC2)n1 [Compound 94, 5-(6-(4-cyclopropyl-4H-1,2,4-triazol-3-yl)pyridin-2-yl)-3-phenyl-4,5-dihydro-6H-thieno[2,3-c]pyrrol-6-one]
ASK1
  IC50: 200 to 1000 nM
[1]
  IC50: 1000 to 10000 nM

## O=C1c2sc3ccccc3c2CN1c1cccc(-c2nncn2C2CC2)n1 [Compound 95, 2-(6-(4-cyclopropyl-4H-1,2,4-triazol-3-yl)pyridin-2-yl)-1,2-dihydro-3H-benzo[4,5]thieno[2,3-c]pyrrol-3-one]
ASK1
  IC50: 200 to 1000 nM
[1]
  IC50: 1000 to 10000 nM

## Cc1cc2c(s1)C(=O)N(c1cccc(-c3nncn3C3CC3)n1)C2 [Compound 96, 5-(6-(4-cyclopropyl-4H-1,2,4-triazol-3-yl)pyridin-2-yl)-2-methyl-4,5-dihydro-6H-thieno[2,3-c]pyrrol-6-one]
ASK1
  IC50: < 200 nM
[1]
  IC50: 200 to 1000 nM

## CCc1cc2c(s1)C(=O)N(c1cccc(-c3nncn3C3CC3)n1)C2 [Compound 97, 5-(6-(4-cyclopropyl-4H-1,2,4-triazol-3-yl)pyridin-2-yl)-2-ethyl-4,5-dihydro-6H-thieno[2,3-c]pyrrol-6-one]
ASK1
  IC50: 200 to 1000 nM
[1]
  IC50: < 200 nM

## O=C1c2scc(C3CCOCC3)c2CN1c1cccc(-c2nncn2C2CC2)n1 [Compound 98, 5-(6-(4-cyclopropyl-4H-1,2,4-triazol-3-yl)pyridin-2-yl)-3-(tetrahydro-2H-pyran-4-yl)-4,5-dihydro-6H-thieno[2,3-c]pyrrol-6-one]
ASK1
  IC50: 1000 to 10000 nM
[1]
  IC50: 1000 to 10000 nM

## Cc1csc2c1CN(c1cccc(-c3nncn3C3CC3)n1)C2=O [Compound 99, 5-(6-(4-cyclopropyl-4H-1,2,4-triazol-3-yl)pyridin-2-yl)-3-methyl-4,5-dihydro-6H-thieno[2,3-c]pyrrol-6-one]
ASK1
  IC50: 200 to 1000 nM
[1]
  IC50: 1000 to 10000 nM

## O=C1c2scc(Br)c2CN1c1cccc(-c2nncn2C2CC2)n1 [Compound 100, 3-bromo-5-(6-(4-cyclopropyl-4H-1,2,4-triazol-3-yl)pyridin-2-yl)-4,5-dihydro-6H-thieno[2,3-c]pyrrol-6-one]
ASK1
  IC50: 200 to 1000 nM
[1]
  IC50: 1000 to 10000 nM

## CC(C)CNc1csc2c1CN(c1cccc(-c3nncn3C3CC3)n1)C2=O [Compound 101, 5-(6-(4-cyclopropyl-4H-1,2,4-triazol-3-yl)pyridin-2-yl)-3-(isobutylamino)-4,5-dihydro-6H-thieno[2,3-c] pyrrol-6-one]
[1]
  IC50: 1000 to 10000 nM

## COc1cc2c(s1)C(=O)N(c1cccc(-c3nncn3C3CC3)n1)C2 [Compound 102, 5-(6-(4-cyclopropyl-4H-1,2,4-triazol-3-yl)pyridin-2-yl)-2-methoxy-4,5-dihydro-6H-thieno[2,3-c]pyrrol-6-one]
ASK1
  IC50: < 200 nM
[1]
  IC50: 200 to 1000 nM

## CC(C)n1cnnc1-c1cccc(N2Cc3ccsc3C2=O)n1 [Compound 103, 5-(6-(4-isopropyl-4H-1,2,4-triazol-3-yl)pyridin-2-yl)-4,5-dihydro-6H-thieno[2,3-c]pyrrol-6-one]
ASK1
  IC50: < 200 nM
[1]
  IC50: < 200 nM

## CN(C)c1cc2c(s1)C(=O)N(c1cccc(-c3nncn3C3CC3)n1)C2 [Compound 104, 5-(6-(4-cyclopropyl-4H-1,2,4-triazol-3-yl)pyridin-2-yl)-2-(dimethylamino)-4,5-dihydro-6H-thieno[2,3-c] pyrrol-6-one]
ASK1
  IC50: 200 to 1000 nM
[1]
  IC50: 200 to 1000 nM

## N-(3-(5-(6-(4-Cyclopropyl-4H-1,2,4-triazol-3-yl)pyridin-2-yl)-6-oxo-5,6-dihydro-4H-thieno[2,3-c]pyrrol-2-yl)phenypacetamide [Compound 92]
ASK1
  IC50: 200 to 1000 nM
[1]
  IC50: < 200 nM

Reference: patent US20210213006A1, “METHODS OF TREATING NEURODEGENERATIVE DISEASES” (Seal Rock Therapeutics, Inc., priority 2018, published 2021)
